biological target: RORγ receptor (Homo sapiens, UniProt P51449); assay: RORγ Gal4 reporter assay (Gal4-luciferase, inverse agonist activity); type: cell-based; conditions: not given
Protocol: General RORγ Gal4 Reporter Assay
IC50 values were determined.

Sequence of RORγ receptor (P51449 269-508): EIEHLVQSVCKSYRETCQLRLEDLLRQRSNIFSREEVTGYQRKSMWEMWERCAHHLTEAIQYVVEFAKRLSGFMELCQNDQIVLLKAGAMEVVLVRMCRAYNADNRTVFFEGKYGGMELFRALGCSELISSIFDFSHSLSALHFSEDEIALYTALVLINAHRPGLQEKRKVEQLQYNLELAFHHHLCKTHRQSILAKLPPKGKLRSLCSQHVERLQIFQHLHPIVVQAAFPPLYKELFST

Which IC50 does the source give for `CNC(=O)CN[C@@H]1CC[C@@]2(S(=O)(=O)c3ccc(F)cc3)c3ccc(C(F)(C(F)(F)F)C(F)(F)F)cc3CC[C@@H]12` [Example 208, 2-(((3R,3 aS,9bS)-9b-((4-fluorophenyl)sulfonyl)-7-(perfluoropropan-2-yl)-2,3,3a,4,5,9b-hexahydro-1H-cyclopenta[a]naphthalen-3-yl)amino)-N-methylacetamide] here?
The IC50 was 16 nM.

For `[2H]C([2H])([2H])C(=O)N1CC(O)(CC(=O)N[C@@H]2CC[C@@]3(S(=O)(=O)c4ccc(F)cc4)c4ccc(C(F)(C(F)(F)F)C(F)(F)F)cc4CC[C@@H]23)C1` [Example 231, 2-(1-(acetyl-d3)-3-hydroxyazetidin-3-yl)-N-((3R,3aS,9bS)-9b-((4-fluorophenyl)sulfonyl)-7-(perfluoropropan-2-yl)-2,3,3a,4,5,9b-hexahydro-1H-cyclopenta[a]naphthalen-3-yl)acetamide], which IC50 is on record?
Its IC50 is 65 nM.

With `O=C(N[C@@H]1CC[C@@]2(S(=O)(=O)c3ccc(F)cc3)c3ccc(C(F)(C(F)(F)F)C(F)(F)F)cc3CC[C@@H]12)C1=CCS(=O)(=O)CC1` [Example 299, N-((3R,3aS,9bS)-9b-((4-fluorophenyl)sulfonyl)-7-(perfluoropropan-2-yl)-2,3,3a,4,5,9b-hexahydro-1H-cyclopenta[a]naphthalen-3-yl)-3,6-dihydro-2H-thiopyran-4-carboxamide 1,1-dioxide] as the molecule, how does the IC50 read?
Its IC50 is 5 nM.

same assay, conditions: Jurkat cells stably over-expressing hRORγ; Gal4-luciferase reporter; overnight incubation; read-out: RORγ Gal4, IC50

With `CNC(=O)CN(CC(=O)NC)[C@@H]1CC[C@@]2(S(=O)(=O)c3ccc(F)cc3)c3ccc(C(F)(C(F)(F)F)C(F)(F)F)cc3CC[C@@H]12` [Example 209, 2,2′-(((3R,3aS,9bS)-9b-((4-fluorophenyl)sulfonyl)-7-(perfluoropropan-2-yl)-2,3,3a,4,5,9b-hexahydro-1H-cyclopenta[a]naphthalen-3-yl)azanediyl)bis(N-methylacetamide)] as the molecule, how does the IC50 read?
The IC50 was 166 nM.

`CN(C)[C@@H]1CC[C@@]2(S(=O)(=O)c3ccc(F)cc3)c3ccc(C(F)(C(F)(F)F)C(F)(F)F)cc3CC[C@@H]12` [Example 212] was tested. Which IC50 did it give?
Its IC50 is 160 nM.

How did the IC50 turn out when `CC(C)(O)CC(=O)N[C@@H]1CC[C@@]2(S(=O)(=O)c3ccc(F)cc3)c3ccc(C(F)(C(F)(F)F)C(F)(F)F)cc3NC[C@@H]12` [Example 221] was run?
The IC50 was 45 nM.

`CC(C)(O)CN1C(=O)CCN1C(=O)N[C@@H]1CC[C@@]2(S(=O)(=O)c3ccc(F)cc3)c3ccc(C(F)(C(F)(F)F)C(F)(F)F)cc3CC[C@@H]12` [Example 229, N-((3R,3aS,9bS)-9b-((4-fluorophenyl)sulfonyl)-7-(perfluoropropan-2-yl)-2,3,3a,4,59b-hexahydro-1H-cyclopenta[a]naphthalen-3-yl)-2-(2-hydroxy-2-methylpropyl)-3-oxopyrazolidin-1-carboxamide] was tested. Which IC50 did it give?
The IC50 was 5 nM.

Which IC50 does the source give for `O=C1OCCN1[C@@H]1CC[C@@]2(S(=O)(=O)c3ccc(F)cc3)c3ccc(C(F)(C(F)(F)F)C(F)(F)F)cc3CC[C@@H]12` [Example 240, 3-((3R,3aS,9bS)-9b-((4-fluorophenyl)sulfonyl)-7-(perfluoropropan-2-yl)-2,3,3a,4,5,9b-hexahydro-1H-cyclopenta[a]naphthalen-3-yl)oxazolidin-2-one] here?
The IC50 was 9 nM.

`O=C(CO)N1CCC(O)(C(=O)N[C@@H]2CC[C@@]3(S(=O)(=O)c4ccc(F)cc4)c4ccc(C(F)(C(F)(F)F)C(F)(F)F)cc4CC[C@@H]23)CC1` [Example 256] was tested. Which IC50 did it give?
Its IC50 is 4 nM.

For `CC(NC(=O)c1c[nH]cn1)[C@@H]1CC[C@@]2(S(=O)(=O)c3ccc(F)cc3)c3ccc(C(F)(C(F)(F)F)C(F)(F)F)cc3CC[C@@H]12` (stereo partly shown) [Example 257], which IC50 is on record?
Its IC50 is 27 nM.

For `CC(NC(=O)c1ccncn1)[C@@H]1CC[C@@]2(S(=O)(=O)c3ccc(F)cc3)c3ccc(C(F)(C(F)(F)F)C(F)(F)F)cc3CC[C@@H]12` (stereo partly shown) [Example 261], which IC50 is on record?
Its IC50 is 34 nM.

With `CC(NC(=O)c1ccncn1)[C@@H]1CC[C@@]2(S(=O)(=O)c3ccc(F)cc3)c3ccc(C(F)(C(F)(F)F)C(F)(F)F)cc3CC[C@@H]12` (stereo partly shown) [Example 262] as the molecule, how does the IC50 read?
The IC50 was 87 nM.

`CC(NC(=O)c1ccncc1)[C@@H]1CC[C@@]2(S(=O)(=O)c3ccc(F)cc3)c3ccc(C(F)(C(F)(F)F)C(F)(F)F)cc3CC[C@@H]12` (stereo partly shown) [Example 263] was tested. Which IC50 did it give?
The IC50 was 22 nM.

`CC(NC(=O)c1ccncc1)[C@@H]1CC[C@@]2(S(=O)(=O)c3ccc(F)cc3)c3ccc(C(F)(C(F)(F)F)C(F)(F)F)cc3CC[C@@H]12` (stereo partly shown) [Example 264] was tested. Which IC50 did it give?
The IC50 was 82 nM.

`CC(NC(=O)[C@@H]1C[C@@H](F)C(=O)N1)[C@@H]1CC[C@@]2(S(=O)(=O)c3ccc(F)cc3)c3ccc(C(F)(C(F)(F)F)C(F)(F)F)cc3CC[C@@H]12` (stereo partly shown) [Example 267] was tested. Which IC50 did it give?
Its IC50 is 15 nM.

`CC(NC(=O)[C@@H]1C[C@@H](F)C(=O)N1)[C@@H]1CC[C@@]2(S(=O)(=O)c3ccc(F)cc3)c3ccc(C(F)(C(F)(F)F)C(F)(F)F)cc3CC[C@@H]12` (stereo partly shown) [Example 268] was tested. Which IC50 did it give?
Its IC50 is 21 nM.

Which IC50 does the source give for `CC(NC(=O)[C@H](C)N)[C@@H]1CC[C@@]2(S(=O)(=O)c3ccc(F)cc3)c3ccc(C(F)(C(F)(F)F)C(F)(F)F)cc3CC[C@@H]12` (stereo partly shown) [Example 271] here?
Its IC50 is 45 nM.

How did the IC50 turn out when `CC(NS(=O)(=O)c1cnn(C)c1)[C@@H]1CC[C@@]2(S(=O)(=O)c3ccc(F)cc3)c3ccc(C(F)(C(F)(F)F)C(F)(F)F)cc3CC[C@@H]12` (stereo partly drawn) [Example 272, N-(1-((3R,3aS,9bS)-9b-((4-fluorophenyl)sulfonyl)-7-(perfluoropropan-2-yl)-2,3,3a,4,5,9b-hexahydro-1H-cyclopenta[a]naphthalen-3-yl)ethyl)-1-methyl-1H-pyrazole-4-sulfonamide] was run?
The IC50 was 27 nM.

For `CC(NS(=O)(=O)c1cnn(C)c1)[C@@H]1CC[C@@]2(S(=O)(=O)c3ccc(F)cc3)c3ccc(C(F)(C(F)(F)F)C(F)(F)F)cc3CC[C@@H]12` (stereo partly shown) [Example 273], which IC50 is on record?
Its IC50 is 26 nM.

For `CC(NS(=O)(=O)c1nc[nH]n1)[C@@H]1CC[C@@]2(S(=O)(=O)c3ccc(F)cc3)c3ccc(C(F)(C(F)(F)F)C(F)(F)F)cc3CC[C@@H]12` (stereo partly shown) [Example 274], which IC50 is on record?
Its IC50 is 62 nM.

`CC(NS(=O)(=O)c1nc[nH]n1)[C@@H]1CC[C@@]2(S(=O)(=O)c3ccc(F)cc3)c3ccc(C(F)(C(F)(F)F)C(F)(F)F)cc3CC[C@@H]12` (stereo partly shown) [Example 275] was tested. Which IC50 did it give?
Its IC50 is 65 nM.

For `CS(=O)(=O)N[C@H]1C[C@H](NC(=O)[C@@H]2CC[C@@]3(S(=O)(=O)c4ccc(F)cc4)c4ccc(C(F)(C(F)(F)F)C(F)(F)F)cc4CC[C@@H]23)C1` [Example 276], which IC50 is on record?
Its IC50 is 52 nM.

Which IC50 does the source give for `CS(=O)(=O)N1CCC(CNC(=O)[C@@H]2CC[C@@]3(S(=O)(=O)c4ccc(F)cc4)c4ccc(C(F)(C(F)(F)F)C(F)(F)F)cc4CC[C@@H]23)C1` (stereo partly shown) [Example 277] here?
The IC50 was 6 nM.

With `CS(=O)(=O)N1CCC(CNC(=O)[C@@H]2CC[C@@]3(S(=O)(=O)c4ccc(F)cc4)c4ccc(C(F)(C(F)(F)F)C(F)(F)F)cc4CC[C@@H]23)C1` (stereo partly shown) [Example 278] as the molecule, how does the IC50 read?
The IC50 was 7 nM.

How did the IC50 turn out when `CS(=O)(=O)N1CC(O)(CNC(=O)[C@@H]2CC[C@@]3(S(=O)(=O)c4ccc(F)cc4)c4ccc(C(F)(C(F)(F)F)C(F)(F)F)cc4CC[C@@H]23)C1` [Example 279] was run?
The IC50 was 19 nM.

How did the IC50 turn out when `NS(=O)(=O)N[C@H]1C[C@@H](NC(=O)[C@@H]2CC[C@@]3(S(=O)(=O)c4ccc(F)cc4)c4ccc(C(F)(C(F)(F)F)C(F)(F)F)cc4CC[C@@H]23)C1` [Example 280, (3R,3aS,9bS)-9b-((4-fluorophenyl)sulfonyl)-7-(perfluoropropan-2-yl)-N-((1s,3S)-3-(sulfamoylamino)cyclobutyl)-2,3,3a,4,5,9b-hexahydro-1H-cyclopenta[a]naphthalene-3-carboxamide] was run?
The IC50 was 22 nM.

How did the IC50 turn out when `NS(=O)(=O)N[C@H]1C[C@@H](NC(=O)[C@@H]2CC[C@@]3(S(=O)(=O)c4ccc(F)cc4)c4ccc(C(F)(C(F)(F)F)C(F)(F)F)cc4CC[C@@H]23)C1` [Example 281] was run?
The IC50 was 58 nM.

With `O=C(N[C@@H]1CC[C@@]2(S(=O)(=O)c3ccc(F)cc3)c3ccc(C(F)(C(F)(F)F)C(F)(F)F)cc3CC[C@@H]12)C1(F)CCS(=O)(=O)CC1` [Example 298, 4-fluoro-N-((3R,3aS,9bS)-9b-((4-fluorophenyl)sulfonyl)-7-(perfluoropropan-2-yl)-2,3,3a,4,5,9b-hexahydro-1H-cyclopenta[a]naphthalen-3-yl)tetrahydro-2H-thiopyran-4-carboxamide 1,1-dioxide] as the molecule, how does the IC50 read?
The IC50 was 7 nM.

Reference: patent US10435369B2, “Tricyclic sulfones as ROR gamma modulators” (BRISTOL-MYERS SQUIBB COMPANY, priority 2016, dated 2019)
